Assay results as given in ChEMBL document CHEMBL5338769, “Discovery of Norisoboldine Analogue III11 as a Novel and Potent Aryl Hydrocarbon Receptor Agonist for the Treatment of Ulcerative Colitis” (J Med Chem, 2023).
Activity calls are given as the source filed them. The calls are words filed in the database; no cut-off is given here.

Legend:
[1] = molecular target: T1, Aryl hydrocarbon receptor (Mus musculus, UniProt P30561); assay: Activation of AhR transcription in C57BL/6 mouse naive T cells assessed as increase in AhRR mRNA expression at 1 to 3 uM by qRT-PCR analysis; assay type: cell-based; details: t cell, dose 1-3 µM
T1 sequence (P30561 whole entry): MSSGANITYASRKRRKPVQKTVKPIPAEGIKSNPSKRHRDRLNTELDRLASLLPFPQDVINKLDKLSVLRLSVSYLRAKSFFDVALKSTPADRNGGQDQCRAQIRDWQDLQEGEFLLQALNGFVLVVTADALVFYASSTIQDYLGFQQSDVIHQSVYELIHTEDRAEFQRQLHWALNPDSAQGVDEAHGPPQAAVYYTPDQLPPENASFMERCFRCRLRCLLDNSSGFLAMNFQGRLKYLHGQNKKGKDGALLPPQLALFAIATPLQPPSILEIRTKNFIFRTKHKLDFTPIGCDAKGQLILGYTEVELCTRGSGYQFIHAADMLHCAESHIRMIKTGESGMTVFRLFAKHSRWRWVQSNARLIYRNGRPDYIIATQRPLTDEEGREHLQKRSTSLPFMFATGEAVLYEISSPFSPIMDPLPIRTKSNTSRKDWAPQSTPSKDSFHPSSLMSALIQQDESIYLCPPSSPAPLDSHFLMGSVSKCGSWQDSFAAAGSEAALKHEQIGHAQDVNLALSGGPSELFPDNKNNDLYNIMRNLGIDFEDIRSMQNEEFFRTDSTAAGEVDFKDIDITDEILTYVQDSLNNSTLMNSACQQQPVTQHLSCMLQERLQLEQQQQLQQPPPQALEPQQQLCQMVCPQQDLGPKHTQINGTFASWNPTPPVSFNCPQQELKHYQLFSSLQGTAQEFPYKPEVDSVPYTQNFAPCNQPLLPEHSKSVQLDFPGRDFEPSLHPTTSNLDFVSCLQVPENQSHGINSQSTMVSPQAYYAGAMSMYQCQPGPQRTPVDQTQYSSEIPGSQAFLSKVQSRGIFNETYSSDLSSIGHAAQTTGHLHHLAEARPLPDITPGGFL

[2] = molecular target: T1, Aryl hydrocarbon receptor; assay: Binding affinity to AhR in mouse EL4 cells assessed as thermal stabilization at 3 uM at 37 to 67 degreeC incubated for 24 hrs thermal shift assay based Western blot analysis; assay type: cell-based; details: el4, 24 h
[3] = Unbound drug concentration in rat plasma at 21.67 ug/ml of total concentration measured after 12 hrs by ultrafiltration based HPLC analysis; assay type: ADME, cell-free; details: dose 21.67 µg/ml
[4] = Unbound drug concentration in rat plasma at 48.02 ug/ml of total concentration measured after 12 hrs by ultrafiltration based HPLC analysis; assay type: ADME, cell-free; details: dose 48.02 µg/ml
[5] = Protein binding in rat plasma at 37.38 ug/ml of total concentration measured after 12 hrs by ultrafiltration based HPLC analysis; assay type: ADME, cell-free; details: at 37.38 µg/mL, read-out: PPB (converted)
[6] = Protein binding in rat plasma at 48.02 ug/ml of total concentration measured after 12 hrs by ultrafiltration based HPLC analysis; assay type: ADME, cell-free; details: at 48.02 µg/mL, read-out: PPB (converted)
[7] = Induction of cell differentiation in C57BL/6 mouse naive regulatory T cells assessed as increase in cell frequency at 3 uM incubated for 72 hrs by flow cytometric analysis (reference value: 24.9%); assay type: functional
[8] = Induction of cell differentiation in C57BL/6 mouse naive regulatory T cells assessed as increase in IL-10 mRNA level by measuring fold change at 3 uM incubated for 72 hrs by qRT-PCR analysis; assay type: functional
[9] = Cmax in Sprague-Dawley rat at 3 mg/kg, iv measured at 120 min by LC-MS/MS analysis; assay type: ADME, organism-based; parameters: time 120 min, dose 3 mg/kg, route iv; details: in vivo
[10] = Apparent oral clearance in Sprague-Dawley rat at 3 mg/kg, iv measured upto 1440 min by LC-MS/MS analysis; assay type: ADME, organism-based; details: in vivo, 24 h
[11] = Half-life in Sprague-Dawley rat at 30 mg/kg, po measured upto 1440 min by LC-MS/MS analysis; assay type: ADME, organism-based; details: in vivo
[12] = Cmax in Sprague-Dawley rat at 30 mg/kg, po measured at 120 min by LC-MS/MS analysis; assay type: ADME, organism-based; parameters: dose 30 mg/kg, time 120 min, route po; details: in vivo
[13] = MRT in Sprague-Dawley rat at 30 mg/kg, po measured upto 1440 min by LC-MS/MS analysis; assay type: ADME, organism-based; details: in vivo
[14] = Oral bioavailability in Sprague-Dawley rat at 30 mg/kg measured upto 1440 min by LC-MS/MS analysis; assay type: ADME, organism-based; details: in vivo
Mus musculus [15] = assay: Anti-colitis activity against DSS-induced ulcerative colitis C57BL/6 mouse model assessed as recovery of colon length at 20 mg/kg, po administered once a day for 10 days; assay type: functional, organism-based; details: time 10.0 day
Mus musculus [16] = assay: Anti-colitis activity against DSS-induced ulcerative colitis C57BL/6 mouse model assessed as amelioration of mucosal architecture score by measuring ulceration in colon at 10 to 20 mg/kg, po administered once a day for 10 days by H&E staining based histopathological analysis; assay type: functional, organism-based; details: dose 10-20 mg/kg, time 10.0 day
Mus musculus [17] = assay: Anti-colitis activity against DSS-induced ulcerative colitis C57BL/6 mouse model assessed as amelioration of mucosal architecture score by measuring granulation in colon at 10 to 20 mg/kg, po administered once a day for 10 days by H&E staining based histopathological analysis; assay type: functional, organism-based; details: dose 10-20 mg/kg, time 10.0 day
Mus musculus [18] = assay: Anti-colitis activity against DSS-induced ulcerative colitis C57BL/6 mouse model assessed as amelioration of epithelial change score by measuring hyperplasia in colon at 10 to 20 mg/kg, po administered once a day for 10 days by H&E staining based histopathological analysis; assay type: functional, organism-based; details: dose 10-20 mg/kg, time 10.0 day
Mus musculus [19] = assay: Anti-colitis activity against DSS-induced ulcerative colitis C57BL/6 mouse model assessed as amelioration of epithelial change score by measuring crypt abscesses in colon at 10 to 20 mg/kg, po administered once a day for 10 days by H&E staining based histopathological analysis; assay type: functional, organism-based; details: dose 10-20 mg/kg, time 10.0 day
Mus musculus [20] = assay: In vivo activation of AhR in C57BL/6 mouse assessed as increase in CYP1A1 mRNA expression at 10 to 20 mg/kg, po administered once a day for 10 days by qRT-PCR analysis; assay type: functional, organism-based; details: dose 10-20 mg/kg, time 10.0 day
Mus musculus [21] = assay: Anti-colitis activity in DSS-induced ulcerative colitis C57BL/6 mouse model assessed as CD4+CD25+Foxp3+ Treg cell percentage in spleen at 10 mg/kg, po administered once a day for 10 days by flow cytometric analysis (reference value: 3.3%); assay type: functional; details: time 10 day
Mus musculus [22] = assay: Anti-colitis activity in DSS-induced ulcerative colitis C57BL/6 mouse model assessed as CD4+CD25+Foxp3+ Treg cell percentage in spleen at 20 mg/kg, po administered once a day for 10 days by flow cytometric analysis (reference value: 3.3%); assay type: functional; details: time 10 day
[23] = Upregulation of GATA3 expression level in DSS-induced ulcerative colitis C57BL/6 mouse model assessed as fold change at 20 mg/kg, po administered once a day for 10 days by qRT-PCR analysis; assay type: functional; details: time 10 day
Mus musculus [24] = assay: Anti-colitis activity in DSS-induced ulcerative colitis C57BL/6 mouse model assessed as decrease in IL-17 expression at 20 mg/kg, po administered once a day for 10 days by qRT-PCR analysis; assay type: functional; parameters: scale not given: the % may be the effect or the level left; details: time 10 day

COc1cc2c3c(c1)-c1ccc(O)cc1CC3NCC2 (centres undefined)
Activity [1]: Active | Activity [2]: Active | Cp(f) [3]: 3230 ng/mL | Cp(f) [4]: 6670 ng/mL | fraction unbound at 12 h, 37.38 ug/ml [5]: 0.491 | fraction unbound at 12 h, 48.02 ug/ml [6]: 0.139 | Activity [7]: 35.4% | fold change (FC) [8]: 2.4 | Cmax [9]: 396 ng/mL | CL/F [10]: 0.01 mg/(ng/ml)/min | half-life [11]: 2.69 h | Cmax [12]: 789 ng/mL | MRT [13]: 7.27 h | bioavailability [14]: 87.4% | Activity (Mus musculus [15]): Active | Activity (Mus musculus [16]): Active | Activity (Mus musculus [17]): Active | Activity (Mus musculus [18]): Active | Activity (Mus musculus [19]): Active | Activity (Mus musculus [20]): Active | Activity (Mus musculus [21]): 3.2% | Activity (Mus musculus [22]): 4% | fold change (FC) [23]: 1.14 | Activity (Mus musculus [24]): 86.96%
